This note sets out measurements from a melting point compilation (Tetko et al.; mined from patent text by program, amines drawn as free bases though some values may be those of a salt).

Some results are limits rather than exact numbers.

A word on the melting point: it is the temperature of the solid-liquid transition. As to `CCOC(=O)C(CCCc1ccccc1CP(=O)(OCC)OCC)(NC(C)=O)C(=O)OCC`, the melting point was in the range of 76 to 79 °C.

`Cc1cc(C(=O)NC2=NC(C)CC2(c2ccccc2)c2ccccc2)[nH]n1` (stereo unspecified) displayed a melting point of 221 to 223 °C.

In turn, `CCCCOc1cc(C(=O)O)cc(N)c1-c1ccccc1` came in with a melting point of 122 to 124 °C.

As for `Cc1c(C(F)(F)F)cnn(-c2cc(OCC3CCC3)c(Cl)cc2F)c1=O`, the melting point was 85.3 °C.

`NC(=S)NN=C(CCCCl)c1ccc(O)cc1`: the melting point is 126 to 129 °C.

The molecule `NC1CCCCCCCCCCC(=O)N1` (single isomer, unassigned; (-)) gave a melting point of 128 to 130 °C.

On to `C#Cc1ccc(C=O)cc1`, for which the melting point was 122 to 123 °C.

In the case of `N/C(=C1/Sc2ccccc2C1=O)c1ccccc1Cl`, the melting point was in the range of 167 to 168 °C.

The molecule `CCCOc1c2nc(C(=O)OC)cc(O)c2cc2c(O)cc(C(=O)OC)nc12` came in with a melting point of 245 to 247 °C.

Consider `COc1ccc(C(C#Cc2ccccc2)CN(C)C(=O)C(=O)O)cc1OC1CCCC1` (racemic), for which the melting point was 157 to 159 °C.

`COc1cccc(CNC(=O)c2nc3ccc(C#N)cc3c(=O)[nH]2)c1` showed a melting point of 206 to 208 °C.

In turn, `C[C@@H](F)c1nc(N)nc(N[C@@H]2CCOc3ccccc32)n1` displayed a melting point of 110 to 112 °C.

Consider `O=S(c1ccccc1)c1ccc(Cc2csc(Br)n2)cc1` (stereo unspecified), for which the melting point was found to be 82 °C.

Turning to `CC1(C)CC(O)CC(C)(C)N1OC1C=CCCC1` (stereo unspecified), the melting point is 65 to 66.5 °C.

Take `COc1ccc(N2C(=O)C3=C(SCCO3)C2O)nn1` (stereo unspecified): the melting point stood at 165 °C.

Regarding `Oc1cccc(C(F)(F)F)n1`, the melting point is 117 to 118 °C.

In turn, `Cc1c(C)c(Br)c2ncccc2c1C` showed a melting point of 180 °C.

Take `COc1ccc(C(O)CN2CCN(C(c3ccccc3)c3ccccc3)CC2)cc1OC` (stereo unspecified): the melting point is 85 °C.

Regarding `O=[N+]([O-])c1ccc(Cl)c(F)c1O`, the melting point turned out to be 73 °C.

Consider `COc1cc(C(C)C)c(Oc2cnc(NC(=O)CNC3CCCC3)nc2N)cc1I`, for which the melting point was 176 to 178 °C.

Molecule `CCOC(=O)c1cn2c(n1)SCCC2` registered a melting point of 99 to 100 °C.

For the molecule `CCCCOc1ccc(-c2ccc([C@@]3(CC(=O)O)CCCCS3(=O)=O)s2)cc1`, the melting point was 179 to 180 °C.

On to `COC(=O)CCCCNC(=NC(=O)OCc1ccccc1)NC(=O)OCc1ccccc1`, for which the melting point is 36 to 39 °C.

The molecule `c1ccc2c(c1)OCC(CN1CCC(CNc3nc4ccccc4s3)CC1)O2` (stereo unspecified) displayed a melting point of 133 °C.

Turning to `CCOC(=O)C1C=Nc2c(ccc3ncccc23)N1O` (stereo unspecified), the melting point was 223 to 225 °C.

With `OC1(CN2c3ccccc3Sc3ccccc32)CN2CCC1CC2` (stereo unspecified), the melting point was 127 to 130 °C.

`CSc1ccc(-n2c(-c3ccc(C)cc3)nc(SC)c(C#N)c2=O)cc1` yielded a melting point of 230 to 233 °C.

In the case of `O=C(Nc1ccccc1)NC1CCCCC1`, the melting point amounted to 164 °C.

`CCC(Oc1c(Br)cc(-c2ccc(-c3c(Cc4ccccc4)oc4ccccc34)cc2)cc1Br)C(=O)O` (stereo unspecified) gave a melting point of 79 to 80 °C.

Regarding `Cn1cc(C(=O)O)c(=O)c2cc3cc(F)c(N4CCNC(c5ccc(OCCO)cc5)C4)c(F)c3nc21` (racemic), the melting point is 226 to 228 °C.

With `O=C1c2ccccc2C(=O)N1OC1CCCC1`, the melting point lay within 81.2 to 82.5 °C.

Molecule `N#CCOc1c(-c2ccccc2)c(=O)[nH]c2cc(Cl)ccc12` registered a melting point of 209 to 211 °C.

As for `N#Cc1ccc2c(c1)nc1n2CCC(=O)N1`, the melting point was more than 340 °C.

Take `COc1ccc2[nH]c(CC(C)C)c(C=O)c2c1`: the melting point lay within 146 to 147 °C.

`CC#CC(C)(C)NC(=O)C(CC)Oc1cncc(C#N)c1` (stereo unspecified): the melting point fell in the range of 112 to 113 °C.

`CCOC(=O)C(=O)Nc1cc(C#N)c(Cl)cc1[N+](=O)[O-]`: the melting point fell in the range of 80 to 82 °C.

In the case of `COc1ccc2c(ccn2S(=O)(=O)c2ccccc2)c1`, the melting point is 73 to 75 °C.

`COC(=O)CCN=c1sc2ccccc2s1`: the melting point lay within 58 to 60 °C.

With `Cc1ccnc(C(=O)c2[nH]c3ccc(C(F)(F)F)cc3c2CC(=O)O)c1`, the melting point fell in the range of 218 to 225 °C.

`O=C(CCCCCCCCCCBr)Nc1ccc(O)cc1` came in with a melting point of 116 to 117 °C.

For the molecule `CCNCC1(C)CN(c2c(F)cc3c(=O)c(C(=O)O)cn(C4CC4)c3c2F)C1`, the melting point lay within 250 to 255 °C.

Molecule `CCOC(=O)NN=Cc1nc[nH]c1C` yielded a melting point of 195 to 203 °C.

Turning to `CC(=O)C(=Cc1ccc2c(c1)OCO2)C(=O)OCc1ccccc1`, the melting point lay within 137 to 138 °C.

`C[C@H](O)C(=O)Nc1c(C(=O)c2cc(CO)co2)[nH]c2cc(Cl)ccc12` returned a melting point of 213 to 214 °C.

As for `CN(C)NC(=O)NC1c2ccccc2Oc2ccccc21`, the melting point lay within 189 to 191 °C.

Consider `O=C(O)C(=O)c1ccc(OCCCn2c(=O)c3ccccc3c3ccccc32)cc1`, for which the melting point was 202 to 204 °C.

The molecule `O=[N+]([O-])c1ccc(OCCN2CCN(c3cc(Cl)nnc3Cl)CC2)cc1` came in with a melting point of 128 to 129 °C.

`CCCCCC1=CC(=O)C2=C(OC(C)(C)c3ccc(C)cc32)C1=O` yielded a melting point of 53 to 54 °C.

Turning to `O=[N+]([O-])c1ccc2c(c1)C(c1ccccc1Cl)=NCc1nc(CO)cn1-2`, the melting point lay within 173 to 174 °C.

Regarding `CC(C)C(=O)c1ccc2cc(O)c(O)cc2c1`, the melting point lay within 154 to 156 °C.

Turning to `CCCCCCCCCCNC(=O)c1cccc(N)c1`, the melting point was 56 to 58 °C.

In turn, `CCOC(=O)C1=C(COc2cccnc2)NC(COc2cccnc2)=C(C(=O)OCC)C1c1cccc([N+](=O)[O-])c1` registered a melting point of 206 to 208 °C.

As for `CC(=O)c1ccc(CNC(=O)C(F)(F)F)s1`, the melting point is 83 to 84 °C.

The molecule `Cc1ncc(CCCOc2c(C)cc(-c3nnn(C)n3)cc2C)s1` registered a melting point of 86 to 88 °C.

For the molecule `CN(C)c1nc2ccccc2nc1/C=C/c1nc(Cl)cc(N2CCCC2)n1`, the melting point was in the range of 196 to 197 °C.

Take `COC(=O)C(NC(=O)OC(C)(C)C)c1ccc(CC(=O)O)cc1` (stereo unspecified): the melting point was 123 to 124 °C.

In the case of `Cc1cc(C)cc(C(=O)c2c(C(C)C)c(=O)[nH]c(=O)n2Cc2ccnc(Cl)n2)c1`, the melting point lay within 197 to 198 °C.

In turn, `CC(OS(C)(=O)=O)C(C)n1ncn(-c2ccc(N3CCN(c4ccc(OCC5COC(Cn6cncn6)(c6ccc(F)cc6F)O5)cc4)CC3)cc2)c1=O` (stereo unspecified) yielded a melting point of 172 °C.

The molecule `CC1CCN2C(=O)c3ccccc3NC(=O)C12` (stereo unspecified) returned a melting point of 117 to 118 °C.

As for `N#CCOC(=O)c1ccc([N+](=O)[O-])cc1`, the melting point lay within 80 to 82 °C.

As for `COc1cc(-c2ccc(=O)[nH]n2)ccc1OC(F)F`, the melting point is 170 °C.

`COc1ccc(S(=O)(=O)N2C(=O)C(c3ccccc3OC)(N3Cc4cc(OC)c(OC)cc4C[C@H]3C(=O)N(C)C)c3cc(Cl)ccc32)c(OC)c1` (stereo partly specified): the melting point was determined as 157 °C.

With `O=C(Nc1ccc(C(=O)N2Cc3ccccc3-c3ccccc32)cc1)c1ccc(Cl)c(Cl)c1`, the melting point lay within 94 to 95 °C.

On to `CC(C)N1CCC(CNc2ccc(Cl)cc2C(=O)Nc2ccc(F)cn2)CC1`, for which the melting point is 72 to 74 °C.

With `CS(=O)(=O)N1CCN(c2ccc(C(=O)CCc3ccc(N)cc3)cc2)CC1`, the melting point lay in the range of 166 to 170 °C.

On to `COc1ccc(Sc2cc3ccccc3nn2)cc1`, for which the melting point amounted to 108 °C.

Molecule `CC(=O)OC1CCC2C3CCC4CC(=O)CC(C)C4(C)C3CCC12C` (stereo unspecified) had a melting point of 179 to 180 °C.

For the molecule `COc1cccc(CC(=O)O)c1OCCCc1cn(-c2ccc(C(F)(F)F)nn2)nc1C(C)(C)C`, the melting point lay in the range of 131 to 132 °C.

Molecule `OCCNC(=S)NC(Cc1cccc2ccccc12)=Nc1ccccc1` showed a melting point of 155 to 156 °C.

For the molecule `COC(=O)C(O)NC(=O)OC(C)(C)C` (stereo unspecified), the melting point fell in the range of 96 to 97 °C.

Molecule `COc1ccc2c(c1)c(-c1cc3c(-c4c(C)noc4C)ccnc3[nH]1)cn2C` registered a melting point of 254 to 255 °C.

On to `N#C/C(=C\c1cc(O)c(O)c(I)c1)C(=O)NCc1ccccc1`, for which the melting point came to 220 °C.

Molecule `CC(C)(C)OC(=O)N1CCN(c2cccc(Cl)c2C=O)CC1` showed a melting point of 100 to 103 °C.

Take `CCCOCCOc1ccccc1-c1ccc2c(c1)C=C(C(=O)Nc1ccc(CN(C)C3CCOCC3)cc1)CCS2(=O)=O`: the melting point was 164 to 166 °C.

In turn, `CCCCCCCCCCCCCCCCNc1ccc(C(=O)OCC2CO2)cc1` (stereo unspecified) registered a melting point of 86 to 89 °C.

Consider `O=C(O)CC(c1ccc(OCc2ccc3ccccc3n2)cc1)c1ccc(OCc2ccc3ccccc3n2)cc1`, for which the melting point was 94 to 111 °C.

With `CC(=O)OC1CCC2(C)C(CCC3C4CC5OC6(CC(C)C(C)(C)O6)C(C)(O)C5C4(C)CC(O)C32)C1` (stereo unspecified), the melting point was 194 to 195 °C.

Take `O=C1CC2(CCOc3ccc(Cl)cc32)C(=O)N1` (stereo unspecified): the melting point was in the range of 225 to 226 °C.

`CCC(C(=O)N(C)C)n1cc(Br)cn1` (stereo unspecified) had a melting point of 97 to 100 °C.

`CN(C)C(=O)N(N)c1ccc(F)c(Cl)c1` registered a melting point of 88 to 89 °C.

The molecule `COC(=O)c1cccc(COc2cc(Cl)cnc2N)c1` came in with a melting point of 148 to 150 °C.

Take `C=CCC1(C)Cc2cc(O)c(Cl)c(Cl)c2C1=O` (stereo unspecified): the melting point is 180 °C.

In the case of `COc1ccc(CNc2cc(C(N)=O)c([N+](=O)[O-])cc2[N+](=O)[O-])cc1Cl`, the melting point was in the range of 180 to 182 °C.

On to `Fc1c(Br)ccc2c1OC(c1ccccc1)(c1ccccc1)O2`, for which the melting point was in the range of 61.5 to 63 °C.

Consider `O=c1ccn(CCOCc2ccccc2)c(C(O)c2ccccc2)c1OCc1ccccc1` (stereo unspecified), for which the melting point lay within 154 to 155 °C.

`O=c1c(O)c(-c2nnc(Cc3ccc(F)cc3)o2)[nH]c2ccccc12`: the melting point is more than 300 °C.

`c1ccc2oc(-c3ccncc3)nc2c1` displayed a melting point of 129 to 131 °C.

Consider `CNC(=O)c1cc2ccccc2c(-c2ccccc2I)n1`, for which the melting point is 167 to 168 °C.

Molecule `O=C(c1ccc(Cl)cc1)c1cnc2ccc(Cl)cc2c1O` registered a melting point of more than 260 °C.

In turn, `CC(=O)NC1=CCc2ccccc21` had a melting point of 137 to 138 °C.

`COc1cccc([C@@]23CCC[C@@H]2CN(C)CC3)c1` (relative stereo) came in with a melting point of 40 to 43 °C.
